Calls of active or inactive are those of the source.
Experiments:
[1] = target: T1, Nuclear receptor subfamily 0 group B member 1 (Homo sapiens, UniProt P51843); experiment: Luminescence-based cell-based high throughput dose response assay for inhibitors of the orphan nuclear receptor subfamily 0, group B, member 1 (DAX1; NR0B1). [Related pubchem assays (depositor defined):AID504766, AID504790]; type: functional
T1 sequence (P51843 whole entry): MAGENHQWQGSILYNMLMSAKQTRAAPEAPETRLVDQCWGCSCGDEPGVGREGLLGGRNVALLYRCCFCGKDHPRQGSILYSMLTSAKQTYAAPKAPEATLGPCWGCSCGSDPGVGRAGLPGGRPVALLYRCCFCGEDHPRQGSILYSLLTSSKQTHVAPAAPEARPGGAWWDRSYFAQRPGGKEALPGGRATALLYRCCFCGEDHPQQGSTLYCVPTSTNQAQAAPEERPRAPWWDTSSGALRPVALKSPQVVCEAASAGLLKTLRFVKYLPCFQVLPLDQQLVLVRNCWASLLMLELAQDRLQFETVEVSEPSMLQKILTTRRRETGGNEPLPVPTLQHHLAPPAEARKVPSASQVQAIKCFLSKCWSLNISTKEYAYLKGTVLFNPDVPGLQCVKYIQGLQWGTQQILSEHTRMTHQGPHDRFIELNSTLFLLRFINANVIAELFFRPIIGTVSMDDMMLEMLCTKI

HEK293 [2] = experiment: cells; type: functional, cell-based; details: Homo sapiens
[3] = Luminescence Cell-Based Dose Confirmation HTS to Identify Activators of 5'UTR Stem-Loop Driven Alpha-Synuclein mRNA Translation in H4 Neuroglioblastoma Cells. [Related pubchem assays: 1829 (Project Summary), 1814 (Primary HTS)]; type: functional
[4] = Luminescence Cell-Based Dose Response HTS to Identify Activators of Luciferase Translation or Activity in H4 […] Cells. [Related pubchem assays: 1829 (Project Summary), 1814 (Primary HTS)]; type: functional
cells [5] = type: functional, cell-based
H4 = experiment: Luminescence Cell-Based Dose Response HTS to Identify Activators of 5'UTR Stem-Loop Driven Prion Protein mRNA Translation in H4 Neuroglioblastoma Cells. [Related pubchem assays: 1829 (Project Summary), 1814 (Primary HTS)]; type: functional; details: Homo sapiens
cells [6] = type: functional, cell-based; remark: listed apart in the source
[7] = HepG2 cell cytotoxicity, dose response, cytotoxicity control for Shn3 inhibitor project, CellTiter-Glo, cherry-picked (AID 624134); type: functional, cell-based
[8] = Counterscreen for AddAB inhibitors: absorbance-based bacterial cell-based high throughput dose response assay for inhibitors of bacterial viability. [Related pubchem assays (depositor defined):AID435030, AID449728, AID449731, AID488942, AID488955, AID488956]; type: functional
HEK293 [9] = experiment: SAR Analysis of small molecule inhibitors of T-cell specific antigen receptor-induced NF-kB activation in a HEK-293T cell line using a luminescence assay - Set 2. [Related pubchem assays (depositor defined):AID435003, AID435012, AID489026]; type: functional, cell-based; details: Homo sapiens
[10] = control 3'UTR Renilla luciferase suppression, dose response, counter-screen for Shn3 inhibitor project, cell-based, Clone20-Shn3RL, cherry-picked (AID 624133); type: functional
Jurkat = experiment: SAR Analysis of small molecule inhibitors of T-cell specific antigen receptor-induced NF-kB activation in a Jurkat cell line using a luminescence assay - Set 2. [Related pubchem assays (depositor defined):AID435003, AID435012, AID465]; type: functional, cell-based; details: Homo sapiens
Exodeoxyribonuclease V = target: T2, Exodeoxyribonuclease V (Escherichia coli (strain K12), UniProt P04993+P07648+P08394); experiment: E. coli RecBCD inhibitors, dose response, counter-screen for AddAB inhibitor project, absorbance, V66 E. coli, mutant T4 phage (AID 492957); type: functional, cell-based, Escherichia coli str. K-12 substr. MG1655
T2 sequence (P04993 whole entry): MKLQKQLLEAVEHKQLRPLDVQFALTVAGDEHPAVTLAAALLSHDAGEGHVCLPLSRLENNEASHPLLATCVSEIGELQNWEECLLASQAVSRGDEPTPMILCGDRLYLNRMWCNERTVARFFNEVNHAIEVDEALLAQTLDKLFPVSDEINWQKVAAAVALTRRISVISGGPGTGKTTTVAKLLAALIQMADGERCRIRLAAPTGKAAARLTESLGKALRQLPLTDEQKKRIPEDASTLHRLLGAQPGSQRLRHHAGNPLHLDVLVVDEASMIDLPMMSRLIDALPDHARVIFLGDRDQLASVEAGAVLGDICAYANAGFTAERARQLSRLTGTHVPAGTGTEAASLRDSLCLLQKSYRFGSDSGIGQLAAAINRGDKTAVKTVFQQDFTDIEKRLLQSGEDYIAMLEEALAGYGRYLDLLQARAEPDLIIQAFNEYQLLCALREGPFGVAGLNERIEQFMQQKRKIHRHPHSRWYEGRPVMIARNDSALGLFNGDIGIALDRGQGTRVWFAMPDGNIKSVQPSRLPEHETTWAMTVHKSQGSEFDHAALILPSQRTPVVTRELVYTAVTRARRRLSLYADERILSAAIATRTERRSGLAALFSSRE
T2 sequence (P07648 whole entry): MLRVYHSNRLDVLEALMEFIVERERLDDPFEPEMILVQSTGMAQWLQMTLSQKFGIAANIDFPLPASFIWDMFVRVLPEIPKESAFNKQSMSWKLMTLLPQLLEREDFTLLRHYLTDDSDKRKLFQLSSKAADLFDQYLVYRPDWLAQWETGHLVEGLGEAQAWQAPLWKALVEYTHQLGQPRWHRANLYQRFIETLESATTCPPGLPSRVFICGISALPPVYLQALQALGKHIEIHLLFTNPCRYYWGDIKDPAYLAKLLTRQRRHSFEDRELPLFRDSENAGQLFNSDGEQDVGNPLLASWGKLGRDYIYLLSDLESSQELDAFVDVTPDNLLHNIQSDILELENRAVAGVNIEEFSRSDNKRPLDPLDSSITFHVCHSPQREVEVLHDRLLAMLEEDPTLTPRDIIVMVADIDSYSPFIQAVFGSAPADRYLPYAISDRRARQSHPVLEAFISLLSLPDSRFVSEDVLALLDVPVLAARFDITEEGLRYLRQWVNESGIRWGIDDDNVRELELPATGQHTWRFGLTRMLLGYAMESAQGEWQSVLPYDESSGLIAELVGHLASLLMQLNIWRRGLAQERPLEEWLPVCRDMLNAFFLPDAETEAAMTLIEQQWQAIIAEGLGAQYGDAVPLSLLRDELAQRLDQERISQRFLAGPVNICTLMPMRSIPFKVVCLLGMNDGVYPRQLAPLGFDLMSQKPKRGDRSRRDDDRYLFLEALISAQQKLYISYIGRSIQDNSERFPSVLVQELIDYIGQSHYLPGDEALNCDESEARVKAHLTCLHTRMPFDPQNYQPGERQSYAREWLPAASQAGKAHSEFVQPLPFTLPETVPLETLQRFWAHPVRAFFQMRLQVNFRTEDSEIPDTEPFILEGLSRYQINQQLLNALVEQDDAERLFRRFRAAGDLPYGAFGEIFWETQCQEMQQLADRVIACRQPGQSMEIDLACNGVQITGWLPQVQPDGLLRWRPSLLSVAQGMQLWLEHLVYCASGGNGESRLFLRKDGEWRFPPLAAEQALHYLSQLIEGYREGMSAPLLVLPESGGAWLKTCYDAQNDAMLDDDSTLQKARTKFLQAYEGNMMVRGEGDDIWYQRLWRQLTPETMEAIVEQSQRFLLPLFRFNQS
T2 sequence (P08394 whole entry): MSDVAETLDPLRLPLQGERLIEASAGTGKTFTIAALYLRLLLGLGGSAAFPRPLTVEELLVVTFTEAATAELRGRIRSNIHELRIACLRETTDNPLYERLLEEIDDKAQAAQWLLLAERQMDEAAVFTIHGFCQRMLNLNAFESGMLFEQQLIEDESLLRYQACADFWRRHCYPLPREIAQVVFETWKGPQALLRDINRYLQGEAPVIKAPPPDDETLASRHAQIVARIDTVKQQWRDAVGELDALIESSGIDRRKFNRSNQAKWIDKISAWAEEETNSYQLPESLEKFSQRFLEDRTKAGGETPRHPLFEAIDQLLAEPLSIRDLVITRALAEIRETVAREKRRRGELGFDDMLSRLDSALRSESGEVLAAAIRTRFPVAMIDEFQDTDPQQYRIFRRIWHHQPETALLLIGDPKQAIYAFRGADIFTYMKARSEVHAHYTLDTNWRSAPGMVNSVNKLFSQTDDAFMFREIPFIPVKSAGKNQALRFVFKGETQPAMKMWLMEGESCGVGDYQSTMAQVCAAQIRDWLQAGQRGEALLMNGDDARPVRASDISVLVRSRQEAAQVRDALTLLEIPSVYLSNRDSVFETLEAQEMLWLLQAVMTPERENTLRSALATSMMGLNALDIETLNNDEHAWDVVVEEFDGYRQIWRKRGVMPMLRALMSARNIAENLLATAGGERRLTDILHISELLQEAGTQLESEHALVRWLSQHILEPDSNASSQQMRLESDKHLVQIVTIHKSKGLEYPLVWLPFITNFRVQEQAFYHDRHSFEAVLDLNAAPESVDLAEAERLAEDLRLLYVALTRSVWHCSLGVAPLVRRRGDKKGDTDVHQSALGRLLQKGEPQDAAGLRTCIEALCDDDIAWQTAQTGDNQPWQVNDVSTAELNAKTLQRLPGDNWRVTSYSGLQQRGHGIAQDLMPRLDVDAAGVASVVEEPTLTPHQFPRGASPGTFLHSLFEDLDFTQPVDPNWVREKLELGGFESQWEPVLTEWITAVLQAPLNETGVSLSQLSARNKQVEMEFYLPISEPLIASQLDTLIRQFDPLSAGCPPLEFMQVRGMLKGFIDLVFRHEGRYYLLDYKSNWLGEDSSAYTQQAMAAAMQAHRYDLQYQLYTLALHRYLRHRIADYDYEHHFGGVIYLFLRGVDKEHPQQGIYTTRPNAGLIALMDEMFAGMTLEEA

HEK293 [11] = experiment: cytotoxicity in HEK293T NF-kB-Luc cells, SAR follow-up, cytotoxicity control for NF-kB activator project, cell-based, resazurin fluorescence (AID 493251); type: functional; details: Homo sapiens
[12] = Shn3 3'UTR reporter inhibitors, dose response, cell-based, Clone20 osteoblasts, firefly luciferase, cherry-picked (AID 624132); type: functional;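 further: firefly luciferase luminescence from reporter carrying the Shn3 3'UTR in osteoblasts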
[13] = target: T3, Oxysterols receptor LXR-beta (Homo sapiens, UniProt P55055); type: functional, cell-based;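 further: agonist activity at LXR measured by a cell-based luminescence readout across a dose range, run as a counterscreen for daf-12 agonists; HEK293 cells with Gal4-LXR fusion and GAL4-driven luciferase reporter; potency for activation of Gal4-LXR reporter so compounds are agonists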
T3 sequence (P55055 whole entry): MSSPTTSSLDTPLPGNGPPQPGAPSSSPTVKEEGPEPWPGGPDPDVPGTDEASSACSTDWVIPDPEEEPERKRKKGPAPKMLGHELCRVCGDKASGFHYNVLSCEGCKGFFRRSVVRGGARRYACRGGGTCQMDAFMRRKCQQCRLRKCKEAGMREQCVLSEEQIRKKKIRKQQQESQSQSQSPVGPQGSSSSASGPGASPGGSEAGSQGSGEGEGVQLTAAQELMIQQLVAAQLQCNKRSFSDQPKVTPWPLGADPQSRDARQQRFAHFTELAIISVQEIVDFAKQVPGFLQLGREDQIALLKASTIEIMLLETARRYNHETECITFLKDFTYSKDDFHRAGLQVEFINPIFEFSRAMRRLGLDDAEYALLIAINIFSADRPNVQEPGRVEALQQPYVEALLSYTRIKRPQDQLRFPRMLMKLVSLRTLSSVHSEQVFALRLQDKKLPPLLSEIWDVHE

Compound | IC50 [1] | IC50 (HEK293 [2]) | IC50 (HEK293 [9]) | IC50 (Jurkat) | IC50 (HEK293 [11]) | further results
Cc1cc2nc(CSc3ccc(Cl)cc3)cc(O)n2n1 | > 67.6 µM (inactive) | > 67.6 µM (inactive) |  |  |  | 
O=C(Nc1ncccc1O)c1ccc(S(=O)(=O)Nc2ccccc2)cc1 | > 67.6 µM (inactive) | > 0.00338 µM (active) |  |  |  | EC50 [3]: 12.2 µM (active); EC50 [4]: 19.9 µM (active); EC50 (cells [5]): > 350 µM (not active); EC50 (H4): 22.9 µM (active); EC50 (cells [6]): 23.3 µM (active)
O=C(Nc1ccc2oc(-c3ccncc3)nc2c1)c1ccc([N+](=O)[O-])o1 |  |  | 41.5 µM (inactive) | 55.5 µM (inactive) | > 80 µM (inactive) | AC50 [7]: > 70 µM (inactive); IC50 [8]: > 119 µM (inactive); AC50 [10]: 20.7 µM (active); IC50 (Exodeoxyribonuclease V): > 119 µM (inactive); AC50 [12]: 18.6 µM (active)
Cc1cc(NC(=O)c2ccc([N+](=O)[O-])o2)cc(-c2nc3ccccc3o2)c1O |  |  | > 80 µM (inactive) | 3.42 µM (active) | > 80 µM (inactive) | 
Oc1[nH]c2ccccc2c1/C=N/c1ccccc1 | > 67.5 µM (inactive) | > 67.5 µM (inactive) |  |  |  | EC50 [13]: > 67.5 µM (inactive)

Source: ChEMBL document CHEMBL1201862, “PubChem BioAssay data set” (2004)
